Where two headings read alike, the source gives them in different places.
Assays:
[1] = system: Key Broadleaf Weed and Crop Species; assay: Post-Emergent Test II (Table 5); format: in vivo; conditions: post-emergence, 336 h; for pest or weed control at 70 g/ha: application rate 70 (kg ai/ha; footnote: g ai/ha); for pest or weed control at 140 g/ha: application rate 140 (kg ai/ha; footnote: g ai/ha)
How it was run: (§1)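 Visual injury ratings (0 = no injury, 100 = complete kill) were taken 14 days after treatment relative to untreated plants. Seedlings at the first or second true leaf stage received an overhead spray at 187 L/ha, and solvent-blank sprayed plants served as controls.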

[2] = system: Key Grass and Sedge Weeds as well as Grass Crops; assay: Post-Emergent Test II (Table 6); format: in vivo; conditions: post-emergence, 336 h, 14 days after application; for pest or weed control at 70 g/ha: 70 g ai/ha; for pest or weed control at 140 g/ha: 140 g ai/ha
How it was run: as §1

[3] = Abutilon theophrasti, ABUTH: velvetleaf (Abutilon theophrasti), read-out: Visual Growth Reduction (%) 14 Days After Application ABUTH
[4] = Amaranthus retroflexus, AMARE: redroot pigweed (Amaranthus retroflexus), read-out: Visual Growth Reduction (%) 14 Days After Application AMARE
[5] = Brassica napus, BRSSS: oilseed rape, canola (Brassica napus), read-out: Visual Growth Reduction (%) 14 Days After Application BRSSS
[6] = Chenopodium album, CHEAL: lambsquarters (Chenopodium album), read-out: Visual Growth Reduction (%) 14 Days After Application CHEAL
[7] = Euphorbia heterophylla, EPHHL: wild poinsettia (Euphorbia heterophylla), read-out: Visual Growth Reduction (%) 14 Days After Application EPHHL
[8] = Helianthus annuus, HELAN: sunflower (Helianthus annuus), read-out: Visual Growth Reduction (%) 14 Days After Application HELAN
[9] = Viola tricolor, VIOTR: wild pansy (Viola tricolor), read-out: Visual Growth Reduction (%) 14 Days After Application VIOTR
[10] = CYPSS, read-out: Visual Growth Reduction (%) 14 Days After Application CYPSS
[11] = DIGSA: crabgrass (Digitaria sanguinalis), read-out: Visual Growth Reduction (%) 14 Days After Application DIGSA
[12] = ECHSS, read-out: Visual Growth Reduction (%) 14 Days After Application ECHSS
[13] = ORYSS (crop), read-out: Visual Growth Reduction (%) 14 Days After Application ORYSS
[14] = SORVU: grain sorghum (Sorghum vulgare), read-out: Visual Growth Reduction (%) 14 Days After Application SORVU
[15] = TRZSS (crop), read-out: Visual Growth Reduction (%) 14 Days After Application TRZSS
[16] = ZEAMX: maize, corn (Zea mays), read-out: Visual Growth Reduction (%) 14 Days After Application ZEAMX
[17] = SETFA: giant foxtail (Setaria faberi), read-out: Visual Growth Reduction (%) 14 Days After Application SETFA

Row | SMILES | pest or weed control at 70 g/ha [1, 3] [%] | pest or weed control at 140 g/ha [1, 3] [%] | pest or weed control at 70 g/ha [1, 4] [%] | pest or weed control at 140 g/ha [1, 4] [%] | pest or weed control at 70 g/ha [1, 5] [%] | pest or weed control at 140 g/ha [1, 5] [%] | pest or weed control at 70 g/ha [1, 6] [%] | pest or weed control at 140 g/ha [1, 6] [%] | pest or weed control at 70 g/ha [1, 7] [%] | pest or weed control at 140 g/ha [1, 7] [%] | pest or weed control at 70 g/ha [1, 8] [%] | pest or weed control at 140 g/ha [1, 8] [%] | pest or weed control at 70 g/ha [1, 9] [%] | pest or weed control at 140 g/ha [1, 9] [%] | pest or weed control at 70 g/ha [2, 10] [%] | pest or weed control at 140 g/ha [2, 10] [%] | pest or weed control at 70 g/ha [2, 11] [%] | pest or weed control at 140 g/ha [2, 11] [%] | pest or weed control at 70 g/ha [2, 13] [%] | pest or weed control at 140 g/ha [2, 13] [%] | also measured
1 | COC(=O)c1nc(-c2ccc(Cl)c(F)c2C)nc(N)c1Cl [Compound 31] | 85 to 94 | 85 to 94 | 95 to 100 | 95 to 100 | 30 to 44 | 45 to 59 | 95 to 100 | 95 to 100 | 0 to 29 | 0 to 29 | 85 to 94 | 85 to 94 | 0 to 29 | 0 to 29 | 0 to 29 | 0 to 29 | 0 to 29 | 0 to 29 | 0 to 29 | 0 to 29 | pest or weed control at 70 g/ha [2, 12]: 0 to 29%; pest or weed control at 140 g/ha [2, 12]: 0 to 29%; pest or weed control at 70 g/ha [2, 14]: 0 to 29%; pest or weed control at 140 g/ha [2, 14]: 0 to 29%; pest or weed control at 70 g/ha [2, 15]: 0 to 29%; pest or weed control at 140 g/ha [2, 15]: 0 to 29%; pest or weed control at 70 g/ha [2, 16]: 0 to 29%; pest or weed control at 140 g/ha [2, 16]: 0 to 29%
2 | COC(=O)c1nc(-c2ccc(C(F)(F)F)nc2OC)cc(N)c1Cl [Compound 37] | 75 to 84 | 75 to 84 | 60 to 74 | 75 to 84 | 0 to 29 | 30 to 44 | 85 to 94 | 85 to 94 | 0 to 29 | 0 to 29 | 0 to 29 | 60 to 74 | 0 to 29 | 0 to 29 | 0 to 29 | 0 to 29 | 0 to 29 | 0 to 29 | 0 to 29 | 0 to 29 | pest or weed control at 70 g/ha [2, 17]: 0 to 29%; pest or weed control at 140 g/ha [2, 17]: 0 to 29%; pest or weed control at 70 g/ha [2, 14]: 0 to 29%; pest or weed control at 140 g/ha [2, 14]: 0 to 29%; pest or weed control at 70 g/ha [2, 15]: 0 to 29%; pest or weed control at 140 g/ha [2, 15]: 0 to 29%; pest or weed control at 70 g/ha [2, 16]: 0 to 29%; pest or weed control at 140 g/ha [2, 16]: 0 to 29%
3 | COC(=O)c1nc(-c2ccc(Cl)c(F)c2OC)c(F)c(N)c1Cl [Compound 39, methyl 4-amino-3-chloro-6-(4-chloro-3-fluoro-2-methoxyphenyl)-5-fluoropicolinate] | 95 to 100 | 95 to 100 | 95 to 100 | 95 to 100 | 95 to 100 | 95 to 100 | 0 to 29 | 0 to 29 | 45 to 59 | 45 to 59 | 95 to 100 | 95 to 100 | 95 to 100 | 95 to 100 | 45 to 59 | 95 to 100 | 0 to 29 | 0 to 29 | 0 to 29 | 0 to 29 | pest or weed control at 70 g/ha [2, 12]: 0 to 29%; pest or weed control at 140 g/ha [2, 12]: 0 to 29%; pest or weed control at 70 g/ha [2, 17]: 0 to 29%; pest or weed control at 140 g/ha [2, 17]: 75 to 84%; pest or weed control at 70 g/ha [2, 14]: 0 to 29%; pest or weed control at 140 g/ha [2, 14]: 0 to 29%; pest or weed control at 70 g/ha [2, 15]: 30 to 44%; pest or weed control at 140 g/ha [2, 15]: 30 to 44%; pest or weed control at 70 g/ha [2, 16]: 0 to 29%; pest or weed control at 140 g/ha [2, 16]: 60 to 74%
4 | COC(=O)c1nc(-c2ccc(C(F)(F)F)c(F)c2C)c(F)c(N)c1Cl [Compound 41] | 75 to 84 | 60 to 74 | 0 to 29 | 0 to 29 | 0 to 29 | 0 to 29 | 45 to 59 | 85 to 94 | 0 to 29 | 45 to 59 | 95 to 100 | 95 to 100 | 0 to 29 | 0 to 29 | 0 to 29 | 95 to 100 | 0 to 29 | 0 to 29 | 0 to 29 | 0 to 29 | pest or weed control at 70 g/ha [2, 12]: 0 to 29%; pest or weed control at 140 g/ha [2, 12]: 0 to 29%; pest or weed control at 70 g/ha [2, 14]: 0 to 29%; pest or weed control at 140 g/ha [2, 14]: 0 to 29%; pest or weed control at 70 g/ha [2, 15]: 0 to 29%; pest or weed control at 140 g/ha [2, 15]: 0 to 29%; pest or weed control at 70 g/ha [2, 16]: 0 to 29%; pest or weed control at 140 g/ha [2, 16]: 45 to 59%
5 | COC(=O)c1nc(-c2ccc(C(F)(F)F)nc2OC)c(F)c(N)c1Cl [Compound 44, methyl 4-amino-5-chloro-3-fluoro-2′-methoxy-6′-(trifluoromethyl)-2,3′-bipyridine-6-carboxylate] | 45 to 59 | 75 to 84 | 0 to 29 | 95 to 100 | 45 to 59 | 60 to 74 | 85 to 94 | 85 to 94 | 0 to 29 | 0 to 29 | 85 to 94 | 85 to 94 | 0 to 29 | 0 to 29 | 0 to 29 | 0 to 29 | 0 to 29 | 0 to 29 | 0 to 29 | 0 to 29 | pest or weed control at 70 g/ha [2, 17]: 0 to 29%; pest or weed control at 140 g/ha [2, 17]: 0 to 29%; pest or weed control at 70 g/ha [2, 14]: 0 to 29%; pest or weed control at 140 g/ha [2, 14]: 0 to 29%; pest or weed control at 70 g/ha [2, 15]: 0 to 29%; pest or weed control at 140 g/ha [2, 15]: 0 to 29%; pest or weed control at 70 g/ha [2, 16]: 0 to 29%; pest or weed control at 140 g/ha [2, 16]: 0 to 29%

From US10765114B2, “4-amino-6-(pyridyl and 2-substitutedphenyl)-picolinates and 6-amino-2-(pyridyl and 2-substitutedphenyl)-pyrimidine-4-carboxylates and their use as herbicides” (Dow AgroSciences LLC, priority 2013, dated 2020)
